Assay results: patent US20100086519A1, “Treatment of Hepatitis C Infection With Metalloporphyrins” (The Charlotte-Mecklenburg Hospital Authority d/b/a …, priority 2008, published 2010)
Where a SMILES comes first, the peptide text is derived from it. The star is where a group is joined. Cbz = O=C(OCc1ccccc1)*

How the values were obtained:
9-13 cells = test: growth of cells exposed to proteasome inhibitor; type: cell-based, human; conditions: 20 μM
HCV NS5A protein [1] = target: T1, HCV NS5A protein (Hepatitis C virus genotype 1b, UniProt Q9WMX2); test: NS5A protein levels by Western blot in 9-13 cells; type: cell-based; set-up: processed into structural (C, E1, E2) and nonstructural (NS2, NS3, NS4A, NS4B, NS5A and NS5B) proteins; expressed in transfected cells; host or cells: 9-13 cells (human hepatoma cells with a replicating HCV NS3-NS5B region); conditions: 9-13 cells; for NS5A protein levels, proteasome inhibitor alone: absence of ZnMP, FIG. 5C; for effect on degradation of NS5A by ZnMP 5 μM: epoxomicin 5, 10 μM or MG132 10, 20 μM 30 min before ZnMP 5 μM; for effect on degradation of NS5A by ZnMP 5 μM / effect on degradation of NS5A by ZnMP 10 μM / NS5A protein levels: 4 hours; for effect on degradation of NS5A by ZnMP 10 μM: epoxomicin 5, 10 μM or MG132 10, 20 μM 30 min before ZnMP 10 μM; for NS5A protein levels: 10 μM, FIG. 2A
T1 sequence (Q9WMX2 1973-2419): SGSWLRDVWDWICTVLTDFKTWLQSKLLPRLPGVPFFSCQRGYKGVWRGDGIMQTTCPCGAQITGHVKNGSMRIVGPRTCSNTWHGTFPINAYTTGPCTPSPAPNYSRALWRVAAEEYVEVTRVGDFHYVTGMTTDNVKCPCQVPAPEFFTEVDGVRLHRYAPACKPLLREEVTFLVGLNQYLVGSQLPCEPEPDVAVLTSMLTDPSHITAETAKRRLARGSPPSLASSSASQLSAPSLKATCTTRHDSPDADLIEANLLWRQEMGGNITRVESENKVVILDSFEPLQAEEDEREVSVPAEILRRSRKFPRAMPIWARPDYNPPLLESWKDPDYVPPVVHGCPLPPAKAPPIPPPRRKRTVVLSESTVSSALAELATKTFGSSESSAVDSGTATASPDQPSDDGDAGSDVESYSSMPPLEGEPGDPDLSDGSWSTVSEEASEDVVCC
Text: Bartenschlager (University of Heidelberg, Heidelberg, Germany).
Biochim Biophys Acta 2008; 1779:195-203.

Bach1 = target: T2, Bach1 (Mus musculus, UniProt P97302); conditions: NIH 3T3 cells; cited from earlier work
T2 construct: host or cells: NIH 3T3 cells
T2 sequence (P97302 1-739): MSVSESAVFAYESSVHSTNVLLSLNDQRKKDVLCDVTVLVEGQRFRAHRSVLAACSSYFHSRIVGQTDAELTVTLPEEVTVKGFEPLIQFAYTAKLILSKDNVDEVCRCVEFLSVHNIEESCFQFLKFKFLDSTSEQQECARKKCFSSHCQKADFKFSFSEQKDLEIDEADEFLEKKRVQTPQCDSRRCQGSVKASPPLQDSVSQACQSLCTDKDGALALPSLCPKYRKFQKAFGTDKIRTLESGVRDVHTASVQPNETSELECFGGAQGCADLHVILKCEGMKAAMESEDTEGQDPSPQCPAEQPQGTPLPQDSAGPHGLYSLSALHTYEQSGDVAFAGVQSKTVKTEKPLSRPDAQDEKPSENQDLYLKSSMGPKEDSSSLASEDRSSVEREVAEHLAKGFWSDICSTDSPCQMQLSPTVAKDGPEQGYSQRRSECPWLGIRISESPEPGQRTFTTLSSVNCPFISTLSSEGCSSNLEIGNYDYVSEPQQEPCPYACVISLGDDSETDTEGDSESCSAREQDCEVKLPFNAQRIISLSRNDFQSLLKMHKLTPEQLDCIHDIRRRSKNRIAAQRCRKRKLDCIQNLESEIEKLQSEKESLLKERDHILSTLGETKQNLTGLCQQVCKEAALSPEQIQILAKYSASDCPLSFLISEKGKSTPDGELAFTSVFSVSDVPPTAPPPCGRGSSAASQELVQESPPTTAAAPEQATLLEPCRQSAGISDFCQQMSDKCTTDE

HO-1 gene = conditions: NIH 3T3 cells; cited from earlier work
HCV = test: anti-viral activity (summary statement); type: cell-based, hepatitis C virus
HCV NS5A protein [2] = target: T1, HCV NS5A protein; test: polyubiquitination of NS5A by immunoprecipitation and immunoblot in 9-13 cells; type: cell-based; set-up: processed into structural (C, E1, E2) and nonstructural (NS2, NS3, NS4A, NS4B, NS5A and NS5B) proteins; expressed in transfected cells; host or cells: 9-13 cells (human hepatoma cells with a replicating HCV NS3-NS5B region)
Description: Immunoprecipitation was carried out according to the Manufacturer's protocol. Briefly, cells were harvested in cold radioimmunoprecipitation assay (RIPA) buffer (50 mM Tris-HC1 [pH 7.4], 150 mM NaCl, 1 mM EDTA, 0.25% sodium deoxycholate, 1% IGEPAL CA-630, 1 mM PMSF, 1 mM NaF, 1 mM Na3VO4 and 1 μg/ml each of aprotinin, leupeptin, and pepstatin). The samples were pre-cleared with Protein A/G Agarose for 10 min at 4° C. and subsequently incubated while gently rotating at 4° C. overnight with primary antibody, followed by Protein A/G beads for 1 h at 4° C. Beads were spun down and washed twice with RIPA buffer. Protein samples were separated by electrophoresis on 4-15% SDS-PAGE gels, and transferred to PVDF membrane, conjugated ubiquitin was detected as described for Western blot analysis using anti-ubiquitin antibody.
This Example investigates whether ZnMP induces polyubquitination of NS5A to gain insight into the mechanism by which ZnMP mediates degradation of NS5A protein. 9-13 cells were treated without or with 10 μM ZnMP for 4 h. Total proteins were extracted for subsequent Western blot or immunoprecipitation analysis. Immunoprecipitation was carried out using anti-HCV NS5A antibody. Ubiquitin conjugation of NS5A [polyubiquitinated NS5A (Ub)n-NS5A]was examined with immunoprecipitation using an anti-HCV NS5A antibody and immunoblot using an anti-ubiquitin antibody. […] In FIG. 6B, ubiquitination of NS5A following ZnMP treatment, or vehicle (DMSO) only was compared. The positions of molecular mass markers (in kilodaltons) are indicated to the left of the gel. The bracket indicates polyubiquitinated NS5A. Asterisks indicate cross-reacting immunoglobulin heavy chain. […] These bands may represent polyubiquitinated NS5A.

CC[C@H](C)[C@H](NC(=O)[C@H]([C@@H](C)CC)N(C)C(C)=O)C(=O)N[C@H](C(=O)N[C@@H](CC(C)C)C(=O)[C@@]1(C)CO1)[C@@H](C)O [epoxomicin]
toxicity to the cells (cell growth) (9-13 cells): toxic | NS5A protein levels, proteasome inhibitor alone (HCV NS5A protein [1]): did not affect | effect on degradation of NS5A by ZnMP 5 μM (HCV NS5A protein [1]): completely abrogated | effect on degradation of NS5A by ZnMP 10 μM (HCV NS5A protein [1]): significant reversal

c1ccc(CN(CCN(Cc2ccccn2)Cc2ccccn2)Cc2ccccn2)nc1 [TEPN, N, N, N, N-tetrakis-(2-pyridylmethyl) ethylenediamine]
effect on ZnMP-mediated down-regulation of NS5A protein levels (HCV NS5A protein [1]; chelator 30 min before ZnMP, then 4 h, FIG. 3): did not affect

Tin mesoporphyrin [SnMP]
Bach1 protein levels (Bach1): down-regulate | HO-1 gene expression (HO-1 gene): induce | NS5A protein levels, time course (HCV NS5A protein [1]; 10 μM, 0, 2, 4, 6 h, FIG. 2B): no detectable effects

[Cl-].[Cl-].[Zn+2] [ZnCl2, zinc chloride]
NS5A protein levels (HCV NS5A protein [1]): not affected

CC(C)C[C@@H](C=O)NC(=O)[C@H](CC(C)C)NC(=O)[C@H](CC(C)C)NC(=O)OCc1ccccc1 [MG132] (Cbz-Leu-Leu-Leu-aldehyde)
NS5A protein levels, proteasome inhibitor alone (HCV NS5A protein [1]): did not affect | effect on degradation of NS5A by ZnMP 5 μM (HCV NS5A protein [1]): completely abrogated | effect on degradation of NS5A by ZnMP 10 μM (HCV NS5A protein [1]): significant reversal

mesoporphyrin
NS5A protein levels (HCV NS5A protein [1]): not affected

C=CC1=C(C)c2cc3[n-]c(cc4nc(cc5[n-]c(cc1n2)c(C)c5C=C)C(C)=C4CCC(=O)O)c(CCC(=O)O)c3C.[Zn+2] [ZnPP, Zinc protoporphyrin]
anti-viral activity (summary statement) (HCV): display anti-viral activity | polyubquitination of NS5A (summary statement) (HCV NS5A protein [2]): induce polyubquitination
